Source: PubChem BioAssay (NCI)
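These data come from cells grown in 96-well plates and exposed to compound for 48 hours at five concentrations. TGI is the concentration that stops growth completely.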

Columns and labels:
Test in all cases: NCI tumour cell line growth inhibition, 48 h
A498 renal = test system: A498 renal
786-0 renal = test system: 786-0 renal
OVCAR-4 ovarian = test system: OVCAR-4 ovarian
LOX IMVI melanoma = test system: LOX IMVI melanoma
NCI-H226 lung = test system: NCI-H226 lung
EKVX NSCLC = test system: EKVX NSCLC
NCI/ADR-RES ovarian = test system: NCI/ADR-RES ovarian
SK-MEL-2 melanoma = test system: SK-MEL-2 melanoma
RXF 393 renal = test system: RXF 393 renal
MDA-MB-435 = test system: MDA-MB-435
U251 CNS = test system: U251 CNS
HOP-92 NSCLC = test system: HOP-92 NSCLC
OVCAR-5 ovarian = test system: OVCAR-5 ovarian
CAKI-1 renal = test system: CAKI-1 renal
MDA-MB-231 breast = test system: MDA-MB-231 breast
NCI-H460 lung = test system: NCI-H460 lung
HOP-62 NSCLC = test system: HOP-62 NSCLC
SK-MEL-28 melanoma = test system: SK-MEL-28 melanoma
TK-10 renal = test system: TK-10 renal
SW-620 colon = test system: SW-620 colon
UO-31 renal = test system: UO-31 renal
PC-3 prostate = test system: PC-3 prostate
RPMI-8226 leukemia = test system: RPMI-8226 leukemia
K-562 leukemia = test system: K-562 leukemia
HS 578T breast = test system: HS 578T breast
T-47D breast = test system: T-47D breast
A549 NSCLC = test system: A549 NSCLC
DU-145 prostate = test system: DU-145 prostate
ACHN renal = test system: ACHN renal
SK-MEL-5 melanoma = test system: SK-MEL-5 melanoma
KM12 colon = test system: KM12 colon
IGROV1 ovarian = test system: IGROV1 ovarian
SR leukemia = test system: SR leukemia
MDA-N = test system: MDA-N
SF-539 CNS = test system: SF-539 CNS
SNB-75 CNS = test system: SNB-75 CNS
NCI-H23 lung = test system: NCI-H23 lung
SF-268 CNS = test system: SF-268 CNS
UACC-62 melanoma = test system: UACC-62 melanoma
SN12C renal = test system: SN12C renal
MALME-3M melanoma = test system: MALME-3M melanoma
SF-295 CNS = test system: SF-295 CNS
OVCAR-3 ovarian = test system: OVCAR-3 ovarian
MCF7 breast = test system: MCF7 breast
SK-OV-3 ovarian = test system: SK-OV-3 ovarian
NCI-H522 lung = test system: NCI-H522 lung
M14 melanoma = test system: M14 melanoma
HCT-116 colon = test system: HCT-116 colon
MOLT-4 leukemia = test system: MOLT-4 leukemia
COLO 205 colon = test system: COLO 205 colon
HCC-2998 colon = test system: HCC-2998 colon
SNB-19 CNS = test system: SNB-19 CNS
HT29 colon = test system: HT29 colon
CCRF-CEM leukemia = test system: CCRF-CEM leukemia
OVCAR-8 ovarian = test system: OVCAR-8 ovarian
HCT-15 colon = test system: HCT-15 colon
HL-60(TB) leukemia = test system: HL-60(TB) leukemia
UACC-257 melanoma = test system: UACC-257 melanoma

## OC1c2ccccc2CCC1C(O)(C(F)(F)F)C(F)(F)F (stereo not drawn)
A498 renal
  TGI: > 100 µM
786-0 renal
  TGI: > 100 µM
OVCAR-4 ovarian
  TGI: > 100 µM
LOX IMVI melanoma
  TGI: > 100 µM
NCI-H226 lung
  TGI: > 100 µM
EKVX NSCLC
  TGI: > 100 µM
NCI/ADR-RES ovarian
  TGI: > 100 µM
SK-MEL-2 melanoma
  TGI: > 100 µM
RXF 393 renal
  TGI: > 100 µM
MDA-MB-435
  TGI: > 100 µM
U251 CNS
  TGI: > 100 µM
HOP-92 NSCLC
  TGI: > 100 µM
OVCAR-5 ovarian
  TGI: > 100 µM
CAKI-1 renal
  TGI: > 100 µM
MDA-MB-231 breast
  TGI: > 100 µM
NCI-H460 lung
  TGI: > 100 µM
HOP-62 NSCLC
  TGI: > 100 µM
SK-MEL-28 melanoma
  TGI: > 100 µM
TK-10 renal
  TGI: > 100 µM
SW-620 colon
  TGI: > 100 µM
UO-31 renal
  TGI: > 100 µM
PC-3 prostate
  TGI: > 100 µM
RPMI-8226 leukemia
  TGI: > 100 µM
K-562 leukemia
  TGI: > 100 µM
HS 578T breast
  TGI: > 100 µM
T-47D breast
  TGI: > 100 µM
A549 NSCLC
  TGI: > 100 µM
DU-145 prostate
  TGI: > 100 µM
ACHN renal
  TGI: > 100 µM
SK-MEL-5 melanoma
  TGI: > 100 µM
KM12 colon
  TGI: > 100 µM
IGROV1 ovarian
  TGI: > 100 µM
SR leukemia
  TGI: > 100 µM
MDA-N
  TGI: > 100 µM
SF-539 CNS
  TGI: > 100 µM
SNB-75 CNS
  TGI: > 100 µM
NCI-H23 lung
  TGI: > 100 µM
SF-268 CNS
  TGI: > 100 µM
UACC-62 melanoma
  TGI: > 100 µM
SN12C renal
  TGI: > 100 µM
MALME-3M melanoma
  TGI: > 100 µM
SF-295 CNS
  TGI: > 100 µM
OVCAR-3 ovarian
  TGI: > 100 µM
MCF7 breast
  TGI: > 100 µM
SK-OV-3 ovarian
  TGI: > 100 µM
NCI-H522 lung
  TGI: > 100 µM
M14 melanoma
  TGI: > 100 µM
HCT-116 colon
  TGI: > 100 µM
MOLT-4 leukemia
  TGI: > 100 µM
COLO 205 colon
  TGI: > 100 µM
HCC-2998 colon
  TGI: > 100 µM
SNB-19 CNS
  TGI: > 100 µM
HT29 colon
  TGI: > 100 µM
CCRF-CEM leukemia
  TGI: > 100 µM
OVCAR-8 ovarian
  TGI: > 100 µM
HCT-15 colon
  TGI: > 100 µM
HL-60(TB) leukemia
  TGI: > 100 µM

## CN(C)/C=C1\CCc2ccc([N+](=O)[O-])cc2C1=O
A498 renal
  TGI: > 100 µM
786-0 renal
  TGI: > 100 µM
OVCAR-4 ovarian
  TGI: 34.2 µM
LOX IMVI melanoma
  TGI: 42.6 µM
NCI-H226 lung
  TGI: > 100 µM
EKVX NSCLC
  TGI: > 100 µM
NCI/ADR-RES ovarian
  TGI: > 100 µM
SK-MEL-2 melanoma
  TGI: > 100 µM
RXF 393 renal
  TGI: > 100 µM
MDA-MB-435
  TGI: 34.8 µM
U251 CNS
  TGI: > 100 µM
OVCAR-5 ovarian
  TGI: > 100 µM
CAKI-1 renal
  TGI: > 100 µM
MDA-MB-231 breast
  TGI: 43.8 µM
NCI-H460 lung
  TGI: > 100 µM
HOP-62 NSCLC
  TGI: > 100 µM
SK-MEL-28 melanoma
  TGI: > 100 µM
TK-10 renal
  TGI: > 100 µM
SW-620 colon
  TGI: 97.1 µM
UACC-257 melanoma
  TGI: 38.2 µM
UO-31 renal
  TGI: > 100 µM
PC-3 prostate
  TGI: > 100 µM
RPMI-8226 leukemia
  TGI: 62.2 µM
K-562 leukemia
  TGI: 56.8 µM
HS 578T breast
  TGI: > 100 µM
T-47D breast
  TGI: 89.6 µM
A549 NSCLC
  TGI: > 100 µM
DU-145 prostate
  TGI: > 100 µM
ACHN renal
  TGI: > 100 µM
SK-MEL-5 melanoma
  TGI: > 100 µM
KM12 colon
  TGI: > 100 µM
IGROV1 ovarian
  TGI: > 100 µM
SR leukemia
  TGI: 74.2 µM
MDA-N
  TGI: 38.1 µM
SNB-75 CNS
  TGI: > 100 µM
NCI-H23 lung
  TGI: > 100 µM
SF-268 CNS
  TGI: > 100 µM
UACC-62 melanoma
  TGI: 76.4 µM
SN12C renal
  TGI: 40.4 µM
MALME-3M melanoma
  TGI: > 100 µM
SF-295 CNS
  TGI: > 100 µM
OVCAR-3 ovarian
  TGI: 41.2 µM
MCF7 breast
  TGI: 48 µM
SK-OV-3 ovarian
  TGI: > 100 µM
NCI-H522 lung
  TGI: > 100 µM
M14 melanoma
  TGI: > 100 µM
HCT-116 colon
  TGI: 36 µM
MOLT-4 leukemia
  TGI: 51 µM
COLO 205 colon
  TGI: 43.5 µM
HCC-2998 colon
  TGI: > 100 µM
SNB-19 CNS
  TGI: > 100 µM
HT29 colon
  TGI: 53.7 µM
CCRF-CEM leukemia
  TGI: 52.4 µM
OVCAR-8 ovarian
  TGI: > 100 µM
HCT-15 colon
  TGI: > 100 µM
HL-60(TB) leukemia
  TGI: 66.6 µM
